The subject of assay [1] is ApoB secretion, HepG2 cells. In words: Quantification of the secretion of ApoB. The format is cell-based. As to conditions: Homo sapiens, 24 hours of incubation, secreted apoB immunoprecipitated, read-out: pIC50 values (= −log IC50 value) (converted). The procedure:
HepG2 cells were cultured in 24-well plates in MEM Rega 3 containing 10% fetal calf serum. At 70% confluency, the medium was changed and the test compound or carrier (DMSO, 0.4% final concentration) was added. After 24 hours of incubation, the medium was transferred to Eppendorf tubes and cleared by centrifugation. A sheep antibody directed against either apoB was added to the supernatant and the mixture was kept at 8° C. for 24 hours. Then, rabbit anti-sheep antibody was added and the immune complex was allowed to precipitate for 24 hours at 8° C. The immunoprecipitate was pelleted by centrifugation for 25 minutes at 1320 g and washed twice with a buffer containing 40 mM Mops, 40 mM NaH2PO4, 100 mM NaF, 0.2 mM DTT, 5 mM EDTA, 5 mM EGTA, 1% Triton-X-100, 0.5% sodium deoxycholate (DOC), 0.1% SDS, 0.2 μM leupeptin and 0.2 μM PMSF. Radioactivity in the pellet was quantified by liquid scintillation counting.
Resulting IC50 values are enumerated in Table C.1. When the calculated IC50 was below 6, not enough data points were available at the tested concentrations to calculate an IC50 value.

For assay [2], the target named is MTP (Homo sapiens, UniProt P55157). As to the kind of experiment: MTP assay (triglyceride transfer from donor to acceptor vesicles). The format is biochemical. As to conditions: MTP activity, percent triglyceride transfer, 37° C.; read-out: pIC50 values (= −log IC50 value) (converted). The procedure:
MTP activity was measured using an assay similar to one described by J. R. Wetterau and D. B. Zilversmit in Chemistry and Physics of Lipids, 38, 205-222 (1985). To prepare the donor and acceptor vesicles, the appropriate lipids in chloroform were put into a glass test tube and dried under a stream of N2. A buffer containing 15 mM Tris-HCl pH 7.5, 1 mM EDTA, 40 mM NaCl, 0.02% NaN3 (assay buffer) was added to the dried lipid. The mixture was vortexed briefly and the lipids were then allowed to hydrate for 20 min on ice. Vesicles were then prepared by bath sonication (Branson 2200) at room temperature for maximum 15 min. Butylated hydroxytoluene was included in all vesicle preparations at a concentration of 0.1%. The lipid transfer assay mixture contained donor vesicles (40 nmol phosphatidylcholine, 7.5 mol % of cardiolipin and 0.25 mol % glycerol tri [1-^14C]-oleate), acceptor vesicles (240 nmol phosphatidylcholine) and 5 mg BSA in a total volume of 675 μl in a 1.5 ml microcentrifuge tube. Test compounds were added dissolved in DMSO (0.13% final concentration). After 5 minutes of pre-incubation at 37° C., the reaction was started by the addition of MTP in 100 μl dialysis buffer. The reaction was stopped by the addition of 400 μl DEAE-52 cellulose pre-equilibrated in 15 mM Tris-HCl pH 7.5, 1 mM EDTA, 0.02% NaN3 (1:1, vol/vol). The mixture was agitated for 4 min and centrifuged for 2 min at maximum speed in an Eppendorf centrifuge (4° C.) to pellet the DEAE-52-bound donor vesicles. An aliquot of the supernatant containing the acceptor liposomes was counted and the [^14C]-counts were used to calculate the percent triglyceride transfer from donor to acceptor vesicles.
Resulting IC50 values are enumerated in Table C.2. When the calculated IC50 was below 7, not enough data points were available at the tested concentrations to calculate an IC50 value.

Consider twelve compounds from patent publication US8772494B2, “N-aryl piperidine substituted biphenylcarboxamides as inhibitors of apolipoprotein b” (Janssen Pharmaceutica N.V., priority 2003, dated 2014).

By IC50 is commonly meant the concentration that gives 50% inhibition.

Where only a bound is given, the exact number is not on record here.

Sequence of MTP (P55157 19-894, species assumed): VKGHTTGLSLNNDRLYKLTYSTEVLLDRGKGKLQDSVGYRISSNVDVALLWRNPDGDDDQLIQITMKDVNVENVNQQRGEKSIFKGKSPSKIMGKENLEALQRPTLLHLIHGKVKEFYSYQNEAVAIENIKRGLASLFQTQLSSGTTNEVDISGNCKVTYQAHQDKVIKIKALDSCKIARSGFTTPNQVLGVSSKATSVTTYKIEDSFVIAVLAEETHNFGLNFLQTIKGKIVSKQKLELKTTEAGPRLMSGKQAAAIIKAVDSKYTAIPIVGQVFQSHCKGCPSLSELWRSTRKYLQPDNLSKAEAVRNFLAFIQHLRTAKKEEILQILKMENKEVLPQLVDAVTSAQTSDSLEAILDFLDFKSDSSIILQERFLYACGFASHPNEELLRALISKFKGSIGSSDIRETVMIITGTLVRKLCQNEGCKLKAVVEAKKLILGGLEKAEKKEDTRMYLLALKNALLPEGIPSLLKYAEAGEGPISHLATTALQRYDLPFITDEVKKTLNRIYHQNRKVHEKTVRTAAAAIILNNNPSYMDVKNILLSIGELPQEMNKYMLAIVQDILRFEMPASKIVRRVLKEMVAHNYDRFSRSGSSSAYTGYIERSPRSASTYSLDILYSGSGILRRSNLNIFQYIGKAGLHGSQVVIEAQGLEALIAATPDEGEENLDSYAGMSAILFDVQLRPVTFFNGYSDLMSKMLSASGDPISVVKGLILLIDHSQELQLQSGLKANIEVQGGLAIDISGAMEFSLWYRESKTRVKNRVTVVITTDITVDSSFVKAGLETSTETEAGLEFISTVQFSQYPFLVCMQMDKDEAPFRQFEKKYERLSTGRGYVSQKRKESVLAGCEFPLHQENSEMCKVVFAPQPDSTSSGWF
Sequence of MTP (P07237 18-508 partner, species assumed): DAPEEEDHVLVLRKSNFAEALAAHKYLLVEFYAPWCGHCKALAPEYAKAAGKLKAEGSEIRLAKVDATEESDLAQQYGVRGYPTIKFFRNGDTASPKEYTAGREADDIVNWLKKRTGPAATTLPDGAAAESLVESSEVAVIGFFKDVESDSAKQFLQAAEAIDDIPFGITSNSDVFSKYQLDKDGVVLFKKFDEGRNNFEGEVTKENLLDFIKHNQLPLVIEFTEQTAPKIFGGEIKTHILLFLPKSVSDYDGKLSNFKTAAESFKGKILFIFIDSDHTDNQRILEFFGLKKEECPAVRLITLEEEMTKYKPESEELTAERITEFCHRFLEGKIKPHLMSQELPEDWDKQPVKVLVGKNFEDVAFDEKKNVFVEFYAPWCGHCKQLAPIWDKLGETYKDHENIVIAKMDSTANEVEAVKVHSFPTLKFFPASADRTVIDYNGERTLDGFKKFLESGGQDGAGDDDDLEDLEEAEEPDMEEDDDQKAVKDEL

Turning to `CCOC(=O)CC[C@H](NC(=O)CC1CCN(c2ccc(NC(=O)c3ccccc3-c3ccc(C(F)(F)F)cc3)cc2)CC1)C(=O)OCC` [Compound 34], the IC50 in assay [1] was above 1000 nM; in assay [2], 12.1 nM.

Take `CCOC(=O)C1CCN(C(=O)CC2CCN(c3ccc(NC(=O)c4ccccc4-c4ccc(C(F)(F)F)cc4)cc3)CC2)CC1` [Compound 35]: the results for the concentration for half-maximal inhibition (IC50) in assay [1] and in assay [2] were above 1000 nM and above 100 nM, respectively.

With `CCOC(=O)CNC(=O)CC1CCN(c2ccc(NC(=O)c3ccccc3-c3ccc(C(F)(F)F)cc3)cc2)CC1` [Compound 37], the IC50 in assay [1] is 44.8 nM; in assay [2], 5.01 nM.

As for `CCOC(=O)C(C)(C)NC(=O)CC1CCN(c2ccc(NC(=O)c3cccc(C)c3-c3ccc(C(F)(F)F)cc3)cc2)CC1` [Compound 42], the IC50 in assay [1] was 152 nM; in assay [2], 14.9 nM.

For the compound `COC(=O)CNC(=O)CC1CCN(c2ccc(NC(=O)c3cccc(C)c3-c3ccc(C(F)(F)F)cc3)cc2)CC1` [Compound 43], the IC50 in assay [1] is 7.03 nM; in assay [2] it was 10.4 nM.

`COC(=O)[C@@H](C)NC(=O)CC1CCN(c2ccc(NC(=O)c3cccc(C)c3-c3ccc(C(F)(F)F)cc3)cc2)CC1` [Compound 44]: the IC50 in assay [1] was 21.1 nM; in assay [2], 1.7 nM.

With `CCNC(=O)[C@H](C)NC(=O)CC1CCN(c2ccc(NC(=O)c3cccc(C)c3-c3ccc(C(F)(F)F)cc3)cc2)CC1` [Compound 49], the half-inhibitory concentration (IC50) in assay [1] was 17.3 nM; in assay [2], 9.1 nM.

For `CCNC(=O)COC(=O)CC1CCN(c2ccc(NC(=O)c3cccc(C)c3-c3ccc(C(F)(F)F)cc3)cc2)CC1` [Compound 51], the values for the 50% inhibitory concentration (IC50) in assay [1] and in assay [2] were 15.5 nM and 6.04 nM, respectively.

With `CCOC(=O)CC[C@@H](NC(=O)CC1CCN(c2ccc(NC(=O)c3cccc(C)c3-c3ccc(C(F)(F)F)cc3)cc2)CC1)C(=O)OCC` [Compound 52], the 50% inhibitory concentration (IC50) was 74 nM in assay [1] and 3 nM in assay [2].

As to `COC(=O)[C@H](Cc1c[nH]c2ccccc12)NC(=O)CC1CCN(c2ccc(NC(=O)c3cccc(C)c3-c3ccc(C(F)(F)F)cc3)cc2)CC1` [Compound 53], the half-inhibitory concentration (IC50) in assay [1] is 126 nM; in assay [2], 15.7 nM.

Regarding `COC(=O)CCC(NC(=O)CC1CCN(c2ccc(NC(=O)c3cccc(C)c3-c3ccc(C(F)(F)F)cc3)cc2)CC1)C(=O)OC` (stereo not drawn) [Compound 54], the half-maximal inhibitory concentration (IC50) is 488 nM in assay [1] and 3.11 nM in assay [2].

With `COC(=O)CCNC(=O)CC1CCN(c2ccc(NC(=O)c3cccc(C)c3-c3ccc(C(F)(F)F)cc3)cc2)CC1` [Compound 55], the IC50 is 6.03 nM in assay [1] and 1.62 nM in assay [2].
